Reference: patent US8158606B2, “β-L-2′-deoxynucleosides for the treatment of resistant HBV strains and combination therapies” (priority 2002, dated 2012)

Assays:
[1] = Single-dose bioavailability of L-dC in the rat; settings: Sprague-Dawley, plasma, 10 mg/kg
Experimental: (§12) The drug was detected and the concentration determined in plasma and urine using a reverse-phase HPLC technique. The data were analyzed by a non-modeling mathematical method and the AUCs derived by the linear trapezoidal rule.

[2] = test system: Human DNA polymerases and mitochondrial function; test: Effect on human DNA polymerases and mitochondrial function in vitro
Description: (§1) Human DNA polymerases and mitochondrial function were not affected by L-dC in vitro. L-dC was non-cytotoxic to human peripheral blood mononuclear cells (PBMCs), bone marrow progenitor cells and numerous cell lines of human and other non-human mammalian origin.

[3] = Single-dose bioavailability of L-dC in the rhesus monkey
Experimental: (§13) The drug was detected and concentration determined using a reverse-phase HPLC technique. The blood and urine drug level data were analyzed by a non-modeling mathematical method and AUCs derived by the linear trapezoidal rule.

[4] = Bioavailability of the prodrugs of L-dC; settings: cynomolgus monkey, plasma, po, 10 mg/kg
[5] = test system: human peripheral blood mononuclear cells (PBMCs), bone marrow progenitor cells and numerous cell lines; test: Cytotoxicity of L-dC; assay type: cell-based, human and other non-human mammalian
Description: as §1

in vivo [6] = settings: rhesus monkey, po, 10 mg/kg
Experimental: as §13

[7] = Single dose bioavailability of L-dC in the cynomologus monkey; assay type: in vivo, cynomolgus monkey; settings: for AUC(0-t) / half-life: n=3, mean; for AUC(0-t): read-out: AUClast of L-dC; for half-life: in vivo
Experimental: The pharmacokinetics of L-dC following IV and oral administration of L-dC to cynomolgus monkeys was determined.

in vivo [8] = settings: Sprague-Dawley, rat, 10 mg/kg
Experimental: as §12

[9] = test system: L515M/M552V mutant HBV, cell line MV5/B3; test: Antiviral testing in stable HepG2 cell lines, EPA of intracellular nucleocapsids; assay type: cell-based, hepatitis B virus; settings: Hepatitis B virus, HepG2, L515M/M552V, cell line MV5/B3; mean ± SD of three to four experiments; read-out: EC50
Experimental: (§2) Recombinant DNA constructs corresponding to these lamivudine-resistant mutants were created by site directed mutagenesis. The test system comprised stable cell lines harboring each of the transfected mutant genomes, as well as a wild-type control HBV genome. The antiviral activity of LdT (telbivudine) and LdC, together with the control drugs lamivudine and PMEA, was determined against the mutant and wild-type HBV genomes in the respective test cell lines.
(§3) Endogenous Polymerase Assay (EPA) of cell lysate: Cells were grown in 12-well collagen plates to 100% confluency for 3-4 days and cytosolic lysates were prepared in 1 ml of 50 mM Tris-HCl pH 7.4, 150 mM NaCl, 5 mM MgCl2, 0.2% NP-40. EPAs were essentially performed as described (Seifer et al., 1998). […] The immobilized capsids were then washed, endogenous polymerase reactions were initiated in 50 ul reaction volume containing 50 mM Tris-HCl pH7.4, 75 mM NH4Cl, 1 mM EDTA, 20 mM MgCl2, 0.1 mM β-ME, 0.5% NP-40, 100 μM cold dGTP, TTP, dCTP, and 50 nM ^33P-dATP (Perkin Elmer Life Sciences Cat# NEG 612H), and incubated overnight at 37° C. Following digestion with 1 mg/ml of Proteinase K (Roche, Cat#1373196) for 1 h at 37° C., ^33P-labeled HBV DNA was liberated via phenol/chloroform extraction The nucleic acids were finally precipitated with equal volumes 5M NH4-acetate and 2.5 volumes 100% EtOH and separated on a 1% native agarose gel in Tris-borate buffer. Gels were either fixed with 7% TCA, then dried, or blotted onto positively charged nylon membrane (Pall Biodyne Plus Cat#60406) overnight at room temperature via capillary transfer in 0.4 N NaOH. Dried gels/membranes were exposed to a phosphoimager screen (Molecular Dynamics) overnight at room temperature, then scanned (Storm 860, Molecular Dynamics) and quantitated with ImageQuant (Molecular Dynamics) software.
(§4) 12-well Biocoat collagen I plates (Becton Dickinson Cat#35-4500) are seeded with cells at a density of 0.5-1×10^6 cells per well in 2 ml DMEM containing 5% FBS, 2 mM L-glutamine, 100 I.U. penicillin/100 μg/mL streptomycin, and 0.5 mg/mL G-418.
(§5) Drug dilutions are prepared freshly in 100% DMSO as 200× stocks. For each experiment, 4 aliquots of each drug dilution series are stored at −20° C. until used. Once cells reach confluency, drug treatment is initiated by adding 10 μL of drug dilution into 2 ml of fresh DMEM+5% FBS. […] The no-drug control well receives only 10 μl of DMSO. Cells are treated every other day with 2 mL of fresh drug/medium for a total of 8 days. Cell lysates are then collected on day 10 as described below:
(§6) Aspirate media and rinse cell monolayer carefully once with 1 mL of PBS.
(§7) Add 1 ml of lysis buffer (50 mM Tris-HCl pH 7.5/150 mM NaCl/5 mM MgCl2/0.2% NP-40). Store on ice for 30 min to 4 h.
(§8) Harvest lysed cells. Transfer to 1.5 ml microfuge tubes.
(§9) Clarify lysate by spinning for 5 min at RT and 14,000 rpm.
(§10) Transfer clarified lysate to fresh tubes. Snap-freeze on dry-ice and store at −80° C. until ready to continue with endogenous polymerase assays essentially as described above.
(§11) EC50's were generated from the phosphorimager data by curve fitting using Xlfit software.

[10] = test system: M552V mutant HBV, cell line V1/C9; test: as above; assay type: cell-based, hepatitis B virus; settings: M552V single mutant
Experimental: as §2, §3, §4, §5, §6, §7, §8, §9, §10, §11

[11] = test system: L515M/M552I mutant HBV, cell line MI4; test: as above; assay type: cell-based, hepatitis B virus; settings: Hepatitis B virus, HepG2, L515M/M552I double mutant
Experimental: as §2, §3, §4, §5, §6, §7, §8, §9, §10, §11

[12] = test system: M552I mutant HBV, cell line I2; test: as above; assay type: cell-based, hepatitis B virus; settings: Hepatitis B virus, HepG2, M552I single mutant
Experimental: as §2, §3, §4, §5, §6, §7, §8, §9, §10, §11

human plasma proteins = assay type: in vitro ADME; settings: ex vivo, ultrafiltration
[13] = rhesus monkey, blood, po, 10 mg/kg
[14] = cynomolgus monkey, blood, L-dC 10 mg/kg single IV dose
[15] = cynomolgus monkey, blood, L-dC 10 mg/kg single oral dose

Q: Which results are given for `Nc1ccn([C@@H]2CC(O)[C@H](CO)O2)c(=O)n1` (stereo partly drawn) [L-dC, 2′-Deoxy-β-L-cytidine]?
A: bioavailability ([1]; oral): 15.4%; AUC(0-t) ([1]; po): 4.77 µM·h; Cmax ([1]; po): 1.5 µM; Tmax ([1]; po): 1 h; AUC(0-t) ([1]; female, iv): 30.1 µM·h; Cmax ([1]; female, iv): 91.1 µM; Tmax ([1]; female, iv): 0 h; Vd ([1]; female, iv): 2.53 L/kg; clearance ([1]; female, iv): 24 mL/min/kg; effect on human DNA polymerases and mitochondrial function [2]: not affected; L-dC as share of drug excreted in the urine ([3]; L-dC 10 mg/kg oral): ~77%; administered oral dose recovered in urine after 48 hours ([3]; L-dC 10 mg/kg oral): 15%; administered oral dose recovered in urine within 8 hours ([3]; L-dC 10 mg/kg oral): Approximately 8.5%; CL renal ([3]; rhesus monkey, blood and urine, po, 10 mg/kg): 4.55 mL/min/kg; AUC [3, 13]: 12.2 µM·h; Cmax [3, 13]: 3.23 µM; Tmax [3, 13]: 0.83 h; bioavailability [3, 13]: ~16%; bioavailability [4]: 16.4 ± 5%; cytotoxicity in words [5]: non-cytotoxic; half-life (in vivo [6]): 3.34 h; L-dC as share of the dose recovered in the urine ([7]; L-dC 10 mg/kg IV): 94%; administered dose recovered in urine within 2 hours ([7]; L-dC 10 mg/kg IV): 71%; renal clearance as share of total L-dC clearance ([7]; L-dC 10 mg/kg IV): 87%; L-dC as share of drug excreted in the urine ([7]; L-dC 10 mg/kg oral): ~69%; administered oral dose recovered in urine after 72 hours ([7]; L-dC 10 mg/kg oral): 15.5%; administered oral dose recovered in urine within 12 hours ([7]; L-dC 10 mg/kg oral): Approximately 8.5%; CL renal ([7]; cynomolgus monkey, blood and urine, L-dC 10 mg/kg single IV dose, mean, read-out: renal clearance (CLR) (converted)): 7.67 mL/min/kg; bioavailability ([7]; cynomolgus monkey, blood, L-dC 10 mg/kg oral vs IV, mean, read-out: oral bioavailability (F)): 16.4%; Tmax [7, 14]: 0 h; Cmax ([7]; cynomolgus monkey, blood, L-dC 10 mg/kg single IV dose, mean, at 15 minutes post-dose): 95.7 µM; Vd ([7]; cynomolgus monkey, blood, L-dC 10 mg/kg single IV dose, mean, read-out: apparent volume of distribution (Vd)): 1.22 L/kg; clearance ([7]; cynomolgus monkey, blood, L-dC 10 mg/kg single IV dose, mean, read-out: total clearance (CL) (converted)): 8.83 mL/min/kg; AUC(0-t) [7, 14]: 81.1 µM·h; Cmax [7, 15]: 3.38 µM; Tmax ([7]; cynomolgus monkey, blood, L-dC 10 mg/kg single oral dose, mean): 2.33 h; AUC(0-t) [7, 15]: 13.7 µM·h; half-life ([7]; cynomolgus monkey, L-dC 10 mg/kg single IV dose, read-out: t1/2 of L-dC (converted)): 1.59 h; half-life ([7]; cynomolgus monkey, L-dC 10 mg/kg single oral dose, read-out: terminal t1/2 of L-dC (converted)): 2.95 h; half-life (in vivo [8]; po): 2.52 h; half-life (in vivo [8]; female, iv): 1.21 h; EC50 [9]: ~780 µM; activity against the mutant, in words [10]: retained almost complete activity; EC50 [11]: > 1000 µM; EC50 [12]: > 1000 µM; binding to human plasma proteins (human plasma proteins): 19.7%
